From patent US20040009172A1, “Use of anti-TNFalpha antibodies and another drug” (priority 2002, published 2004)

System: patients with rheumatoid arthritis (RA)
Test: Multicenter, randomized, double-blind, placebo-controlled study of D2E7 in RA patients: efficacy (ACR response)
Format: in vivo, human
Procedure: A study was designed and conducted to investigate the safety and efficacy of D2E7 40 mg administered every other week to patients with RA whose disease was not adequately treated with their current anti-rheumatic therapies (including accepted DMARDs, NSAIDs, or steroids); and was a multicenter, randomized, double-blind, placebo-controlled study in which D2E7 was subcutaneously (sc) administered every other week for up to 24 weeks at a dosage of 40 mg to patients with rheumatoid arthritis (RA) whose disease was not adequately treated with their current anti-rheumatic therapies. Anti-rheumatic therapies permitted for use during the study included accepted disease-modifying anti-rheumatic drugs (DMARDs), non-steroidal anti-inflammatory drugs (NSAIDs), or steroids. Despite using anti-rheumatic therapies, patients must have had active disease documented at both the screening and baseline visits. Doses of DMARDs, as well as concomitant prednisone (<10 mg daily) and NSAIDs, were required to be stable for at least 28 days prior to screening. Additionally, patients using azathioprine and/or cyclosporine discontinued these therapies and underwent a 28-day washout period before screening. At the baseline visit, patients were randomized to D2E7 or placebo and this signified the start of the 24-week placebo-controlled period. Patients were examined at Weeks 2, 4, 8, 12, 16, 20 and 24 of the study.
Patients were inadequately treated with their current anti-rheumatic therapies and had active RA, defined as ≧6 swollen joints and ≧9 tender joints. Additionally, patients using glucocorticoids were allowed into the study if the dose was equivalent to ≦10 mg/day prednisone and had remained unchanged for at least 28 days.
D2E7 was supplied in 2-mL glass vials (the concentration of D2E7 in each vial was 25 mg/mL (ie, 40 mg/1.6 mL)), each containing 40 mg D2E7/1.6 mL solution for injection. D2E7 was manufactured and supplied by Ebewe Arzneimittel GmbH, in Unterach, Austria. McKesson, FIBOC Biosciences, in Rockville, Md., USA, packaged, labeled, stored and distributed D2E7 to the investigators at, each site for this study. D2E7 was self-administered as a single sc injection of 40 mg every other week for a period of 24 weeks. The concentration of study drug was 25 mg/mL. Placebo/1.6 mL (citrate-phosphate buffer solution without D2E7) was self-administered as a single sc injection every other week for a period of 24 weeks.
Patients continued to receive their pre-study dose of anti-rheumatic therapies. Anti-rheumatic therapies permitted for use during the study included DMARDs (hydroxychloroquine, leflunomide, methotrexate, parenteral gold, oral gold and sulfasalazine, or any combination of these or other DMARDs), NSAIDs and steroids. Doses of these DMARDs as well as concomitant prednisone (≦10 mg daily) and NSAIDs must have been stable for at least 28 days prior to screening.
Efficacy endpoints included: ACR20 response at Week 24; ACR50 and ACR70 at Week 24; AUC (area under the curve) of ACR20, ACR50 and ACR70 from baseline to Week 24; time to first response for ACR20, ACR50 and ACR70; numeric ACR (ACR-N); change from baseline to Week 24 in components of the ACR response criteria (tender joint count [TJC], swollen joint count [SJC], patient assessment of pain, patient and physician global assessments of disease activity, HAQ and C-reactive protein [CRP]); change from baseline to Week 24 in physical function as measured by SF-36, health utilities index (HUI), functional assessment of chronic illness therapy (FACIT) fatigue scale; Euro-QoL questionnaire; multidimensional assessment of fatigue (MAF) scale; subject summary survey; incidence and time to dose increases in background DMARD and/or steroid therapy; institution of new DMARD therapy for lack of clinical response; rheumatoid factor (RF); and morning stiffness.
Adverse events were summarized by frequency, percentage, as well as the rate per 100 patient-years. […]

[1] = Non-responder, full analysis set excluding Site #7, N = 315
[2] = Week 2, full analysis set excluding Site #7, N = 315
[3] = Week 4, full analysis set excluding Site #7, N = 315
[4] = Week 8, full analysis set excluding Site #7, N = 315
[5] = Week 12, full analysis set excluding Site #7, N = 315
[6] = Week 16, full analysis set excluding Site #7, N = 315
[7] = Week 20, full analysis set excluding Site #7, N = 315
[8] = Week 24, full analysis set excluding Site #7, N = 315
[9] = Week 24, subgroup Three or more DMARDs
[10] = Week 24, subgroup concomitant Antimalarial
[11] = Week 24, subgroup concomitant Leflunomide
[12] = Week 24, subgroup concomitant Methotrexate
[13] = Week 24, subgroup concomitant Sulfasalazine

D2E7: recombinant, neutralizing human anti-hTNFα antibody; VL region SEQ ID NO: 1, VH region SEQ ID NO: 2
ACR50 response, % of patients responding (LOCF Week 24, N = 315): (30.2) %
ACR50 response, N of patients responding (LOCF Week 24, N = 315): 95
ACR70 response, % of patients responding (LOCF Week 24, N = 315): (15.2) %
ACR70 response, N of patients responding (LOCF Week 24, N = 315): 48
ACR-N Mean ± SD (LOCF Week 24, N = 315): 21.2 ± 55.3
Time to response ACR20: % of patients, Non-responder [1]: (19.4) %
Time to response ACR20: N of patients, Non-responder [1]: 61
Time to response ACR50: % of patients, Non-responder [1]: (50.8) %
Time to response ACR50: N of patients, Non-responder [1]: 160
Time to response ACR70: % of patients, Non-responder [1]: (73.3) %
Time to response ACR70: N of patients, Non-responder [1]: 231
Time to response ACR20: % of patients responding for the first time [2]: (33.7) %
Time to response ACR20: N of patients responding for the first time [2]: 106
Time to response ACR50: % of patients responding for the first time [2]: (9.8) %
Time to response ACR50: N of patients responding for the first time [2]: 31
Time to response ACR70: % of patients responding for the first time [2]: (2.9) %
Time to response ACR70: N of patients responding for the first time [2]: 9
Time to response ACR20: % of patients responding for the first time [3]: (16.2) %
Time to response ACR20: N of patients responding for the first time [3]: 51
Time to response ACR50: % of patients responding for the first time [3]: (9.8) %
Time to response ACR50: N of patients responding for the first time [3]: 31
Time to response ACR70: % of patients responding for the first time [3]: (3.8) %
Time to response ACR70: N of patients responding for the first time [3]: 12
Time to response ACR20: % of patients responding for the first time [4]: (16.5) %
Time to response ACR20: N of patients responding for the first time [4]: 52
Time to response ACR50: % of patients responding for the first time [4]: (10.8) %
Time to response ACR50: N of patients responding for the first time [4]: 34
Time to response ACR70: % of patients responding for the first time [4]: (3.8) %
Time to response ACR70: N of patients responding for the first time [4]: 12
Time to response ACR20: % of patients responding for the first time [5]: (5.4) %
Time to response ACR20: N of patients responding for the first time [5]: 17
Time to response ACR50: % of patients responding for the first time [5]: (6.3) %
Time to response ACR50: N of patients responding for the first time [5]: 20
Time to response ACR70: % of patients responding for the first time [5]: (5.7) %
Time to response ACR70: N of patients responding for the first time [5]: 18
Time to response ACR20: % of patients responding for the first time [6]: (4.1) %
Time to response ACR20: N of patients responding for the first time [6]: 13
Time to response ACR50: % of patients responding for the first time [6]: (6.3) %
Time to response ACR50: N of patients responding for the first time [6]: 20
Time to response ACR70: % of patients responding for the first time [6]: (5.7) %
Time to response ACR70: N of patients responding for the first time [6]: 18
Time to response ACR20: % of patients responding for the first time [7]: (3.8) %
Time to response ACR20: N of patients responding for the first time [7]: 12
Time to response ACR50: % of patients responding for the first time [7]: (2.9) %
Time to response ACR50: N of patients responding for the first time [7]: 9
Time to response ACR70: % of patients responding for the first time [7]: (2.2) %
Time to response ACR70: N of patients responding for the first time [7]: 7
ACR20 response, % of patients (Week 24, 40 mg sc every other week added to current anti-rheumatic therapies, N = 315): 53.0%
ACR20 response, N of patients (Week 24, 40 mg sc every other week, N = 315): 167
ACR50 response, N of patients responding (Week 24, N = 315): 92
ACR70 response, N of patients responding (Week 24, N = 315): 47
ACR-N Mean ± SD (Week 24, N = 315): 20.3 ± 55.2
Time to response ACR20: % of patients responding for the first time [8]: (1.0) %
Time to response ACR20: N of patients responding for the first time [8]: 3
Time to response ACR50: % of patients responding for the first time [8]: (3.2) %
Time to response ACR50: N of patients responding for the first time [8]: 10
Time to response ACR70: % of patients responding for the first time [8]: (2.5) %
Time to response ACR70: N of patients responding for the first time [8]: 8
ACR20 % Response (Week 24, subgroup No DMARD): 50.0%
ACR50 % (Week 24, subgroup No DMARD): 27.8%
ACR70 % (Week 24, subgroup No DMARD): 18.5%
ACR-N Mean ± SD (Week 24, subgroup No DMARD): 12.8 ± 68.2
ACR20 % Response (Week 24, subgroup One DMARD): 55.4%
ACR50 % (Week 24, subgroup One DMARD): 31.0%
ACR70 % (Week 24, subgroup One DMARD): 16.3%
ACR-N Mean ± SD (Week 24, subgroup One DMARD): 22.8 ± 56.0
ACR20 % Response (Week 24, subgroup Other DMARDs): 52.0%
ACR50 % (Week 24, subgroup Other DMARDs): 24.0%
ACR70 % (Week 24, subgroup Other DMARDs): 16.0%
ACR-N Mean ± SD (Week 24, subgroup Other DMARDs): 25.3 ± 33.9
ACR20 % Response [9]: 45.5%
ACR50 % [9]: 18.2%
ACR70 % [9]: 9.1%
ACR-N Mean ± SD [9]: 20.1 ± 37.2
ACR20 % Response (Week 24, subgroup Two DMARDs): 50.0%
ACR50 % (Week 24, subgroup Two DMARDs): 27.3%
ACR70 % (Week 24, subgroup Two DMARDs): 9.1%
ACR-N Mean ± SD (Week 24, subgroup Two DMARDs): 19.5 ± 42.3
ACR20 % Response [10]: 50.7%
ACR50 % [10]: 29.3%
ACR70 % [10]: 12.0%
ACR-N Mean ± SD [10]: 20.0 ± 45.5
ACR20 % Response [11]: 33.3%
ACR50 % [11]: 14.3%
ACR70 % [11]: 0.0%
ACR-N Mean ± SD [11]: −0.5 ± 77.5
ACR20 % Response [12]: 56.7%
ACR50 % [12]: 30.9%
ACR70 % [12]: 15.2%
ACR-N Mean ± SD [12]: 26.5 ± 42.3
ACR20 % Response [13]: 58.6%
ACR50 % [13]: 34.5%
ACR70 % [13]: 17.2%
ACR-N Mean ± SD [13]: 21.4 ± 53.9
Subgroup analyses: ACR20, ACR50, ACR70, ACR-N and their AUC (concomitant methotrexate, antimalarial treatments, sulfasalazine, other DMARDs, or 0, 1, 2, or ≧3 DMARDs, vs placebo): greater improvement
Response compared to placebo (in combination with methotrexate, antimalarial treatments, sulfasalazine, other DMARDs, or 0, 1, 2, or ≧3 DMARDs): higher response compared to placebo
Improvement in RA (patients inadequately treated with existing DMARD therapies): significant improvement in RA
Time to response and AUC for ACR20, ACR50, ACR70; AUC for ACR-N; Euro-QoL, RF, MAF scale (vs placebo): improvement in therapeutic response over placebo
